Source: paper PMC8460821, “Bio-oriented synthesis of new sulphadiazine derivatives for urease inhibition and their pharmacokinetic analysis” (Scientific Reports, 2021)
Where two headings read alike, the source gives them in different places.

Columns and labels:
Jack bean urease = Jack bean urease (Canavalia ensiformis, UniProt P07374); test: biochemical
Protocol: All the synthesized derivatives were subjected to anti-urease activity. In preliminary screening, all compounds were evaluated at 1 mM concentrations, and percentage inhibition was used as an indicator of activity. IC50 values were calculated for the scaffolds having percentage inhibition higher than 50%.
Indophenol method was used to perform the urease inhibition. 10 µL of enzyme, 40 µL buffer, 10 µL of assay moiety, 40-µL each of phenol-reagents, and alkali reagent were present in the assay mixture. Firstly, incubation of assay compounds and enzyme was done in assay buffer at 37 °C for 30 min. Then, alkaline reagents and 40 µL of phenol were mixed to quench the mixture. 96 well plates were used in enzyme assay and for reading of absorbance at 625 nm a microplate reader was helpful. The experiment was done in triplicate and PRISM 4.0 was used to get IC50, positive control was thiourea.

Chain of Jack bean urease (P07374 whole entry, looked up): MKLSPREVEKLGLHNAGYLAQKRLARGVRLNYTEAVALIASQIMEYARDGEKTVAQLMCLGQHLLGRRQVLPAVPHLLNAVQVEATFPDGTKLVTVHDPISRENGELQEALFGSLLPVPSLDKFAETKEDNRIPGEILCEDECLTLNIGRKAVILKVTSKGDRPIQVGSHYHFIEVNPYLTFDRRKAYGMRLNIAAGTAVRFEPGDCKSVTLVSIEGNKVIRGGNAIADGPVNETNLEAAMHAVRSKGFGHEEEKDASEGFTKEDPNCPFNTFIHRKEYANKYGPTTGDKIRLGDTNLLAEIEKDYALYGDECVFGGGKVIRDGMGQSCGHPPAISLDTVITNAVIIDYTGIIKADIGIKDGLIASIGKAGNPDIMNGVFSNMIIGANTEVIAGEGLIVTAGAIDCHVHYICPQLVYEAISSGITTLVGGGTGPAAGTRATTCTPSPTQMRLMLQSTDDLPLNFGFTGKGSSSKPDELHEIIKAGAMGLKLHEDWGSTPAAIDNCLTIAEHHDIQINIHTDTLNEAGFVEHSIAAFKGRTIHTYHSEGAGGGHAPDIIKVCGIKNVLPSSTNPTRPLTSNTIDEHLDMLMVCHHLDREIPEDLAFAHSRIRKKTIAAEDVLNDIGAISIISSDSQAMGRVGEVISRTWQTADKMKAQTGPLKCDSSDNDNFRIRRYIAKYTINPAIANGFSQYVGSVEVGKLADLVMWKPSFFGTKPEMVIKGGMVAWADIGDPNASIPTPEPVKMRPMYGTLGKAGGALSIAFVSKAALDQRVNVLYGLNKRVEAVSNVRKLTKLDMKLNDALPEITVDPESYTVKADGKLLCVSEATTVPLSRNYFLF

Structure (SMILES) | IC50 (Jack bean urease) [µM] | melting point [°C] | IC50 (Jack bean urease; incubation 37 °C 30 min, absorbance 625 nm, triplicate, positive control thiourea, read-out: IC50 urease inhibition) [µM] | Potency relative to standard thiourea (Jack bean urease; ratio of urease IC50 values) [times] | IC50 urease inhibition (Jack bean urease; incubation 37 °C 30 min, absorbance 625 nm, triplicate, positive control thiourea)
O=S(=O)(Nc1ncccn1)c1ccc(N=Cc2ccc(Br)cc2Br)cc1 [3s, 4-(2,4-Dibromobenzylideneamino)-N-(pyrimidin-2-yl)benzenesulfonamide] | 6.09 ± 0.45 | 273 to 275 | – | – | –
O=S(=O)(Nc1ncccn1)c1ccc(N=Cc2ccc(Cl)cc2O)cc1 [3i, 4-(4-Chloro-2-hydroxybenzylideneamino)-N-(pyrimidin-2-yl)benzenesulfonamide] | 25.56 ± 0.22 | 285 to 287 | – | – | –
O=S(=O)(Nc1ncccn1)c1ccc(N=Cc2ccc(F)cc2)cc1 [3g, 4-(4-Fluorobenzylideneamino)-N-(pyrimidin-2-yl)benzenesulfonamide] | 10.1 ± 0.45 | 283 to 285 | – | – | –
O=S(=O)(Nc1ncccn1)c1ccc(N=Cc2ccc(Cl)cc2F)cc1 [3p, 4-(4-Chloro-2-fluorobenzylideneamino)-N-(pyrimidin-2-yl)benzenesulfonamide] | 17.07 ± 0.02 | 275 to 277 | – | – | –
NC(N)=S [thiourea, reference compound] | – | – | 20 ± 2.06 | – | –
O=S(=O)(Nc1ncccn1)c1ccc(N=Cc2ccc(F)cc2F)cc1 [3r, 4-(2,4-Difluorobenzylideneamino)-N-(pyrimidin-2-yl)benzenesulfonamide] | 13.1 ± 2.55 | 279 to 281 | – | – | –
COc1ccc(C=Nc2ccc(S(=O)(=O)Nc3ncccn3)cc2)c(O)c1 [3d, 4-(2-Hydroxy-4-methoxybenzylideneamino)-N-(pyrimidin-2-yl)benzenesulfonamide] | – | 266 to 267 | – | – | –
O=S(=O)(Nc1ncccn1)c1ccc(N=Cc2ccc(F)cc2Br)cc1 [3l, 4-(2-Bromo-4-fluorobenzylideneamino)-N-(pyrimidin-2-yl)benzenesulfonamide] | 2.21 ± 0.45 | 285 to 287 | – | 10 | –
COc1ccc(C=Nc2ccc(S(=O)(=O)Nc3ncccn3)cc2)cc1 [3h, 4-(4-Methoxybenzylideneamino)-N-(pyrimidin-2-yl)benzenesulfonamide] | 45.6 ± 0.56 | 287 to 289 | – | – | –
O=S(=O)(Nc1ncccn1)c1ccc(N=Cc2ccc(Cl)cc2Cl)cc1 [3q, 4-(2,4-Dichlorobenzylideneamino)-N-(pyrimidin-2-yl)benzenesulfonamide] | 4.05 ± 1.1 | 291 to 293 | – | – | –
CN(C)c1ccc(C=Nc2ccc(S(=O)(=O)Nc3ncccn3)cc2)cc1 [3f, 4-(4-(Dimethylamino)benzylideneamino)-N-(pyrimidin-2-yl)benzenesulfonamide] | 13.14 ± 0.02 | 275 to 277 | – | – | –
O=S(=O)(Nc1ncccn1)c1ccc(N=Cc2cc(Br)ccc2O)cc1 [3c, 4-(5-Bromo-2-hydroxybenzylideneamino)-N-(pyrimidin-2-yl)benzenesulfonamide] | – | – | – | – | inactivation of the compound
O=S(=O)(Nc1ncccn1)c1ccc(N=Cc2ccc(Br)cc2F)cc1 [3n, 4-(4-Bromo-2-fluorobenzylideneamino)-N-(pyrimidin-2-yl)benzenesulfonamide] | 18.2 ± 1.78 | 291 to 293 | – | – | –
O=S(=O)(Nc1ncccn1)c1ccc(N=Cc2ccc(O)cc2)cc1 [3t, 4-(4-Hydroxybenzylideneamino)-N-(pyrimidin-2-yl)benzenesulfonamide] | 8.9 ± 2.45 | 271 to 273 | – | – | –
O=S(=O)(Nc1ncccn1)c1ccc(N=Cc2ccccc2O)cc1 [3b, 4-(2-Hydroxybenzylideneamino)-N-(pyrimidin-2-yl)benzenesulfonamide] | 3.29 ± 2 | – | – | – | –
O=S(=O)(Nc1ncccn1)c1ccc(N=Cc2ccccc2)cc1 [3a, 4-(Benzylideneamino)-N-(pyrimidin-2-yl)benzenesulfonamide] | 2.32 ± 0.54 | 269 to 271 | – | – | –
O=S(=O)(Nc1ncccn1)c1ccc(N=Cc2ccc(F)cc2O)cc1 [3j, 4-(4-Fluoro-2-hydroxybenzylideneamino)-N-(pyrimidin-2-yl)benzenesulfonamide] | 19 ± 1.23 | 279 to 281 | – | – | –
O=S(=O)(Nc1ncccn1)c1ccc(N=Cc2ccc(O)cc2O)cc1 [3k, 4-(2,4-Dihydroxybenzylideneamino)-N-(pyrimidin-2-yl)benzenesulfonamide] | 12.1 ± 2.43 | 280 to 282 | – | – | –
O=[N+]([O-])c1ccc(C=Nc2ccc(S(=O)(=O)Nc3ncccn3)cc2)cc1 [3e, 4-(4-Nitrobenzylideneamino)-N-(pyrimidin-2-yl)benzenesulfonamide] | 4.15 ± 0.77 | 274 to 276 | – | – | –
O=S(=O)(Nc1ncccn1)c1ccc(N=Cc2ccc(F)cc2Cl)cc1 [3m, 4-(2-Chloro-4-fluorobenzylideneamino)-N-(pyrimidin-2-yl)benzenesulfonamide] | 15.7 ± 2.45 | 277 to 279 | – | – | –
O=S(=O)(Nc1ncccn1)c1ccc(N=Cc2ccc(Cl)cc2Br)cc1 [3o, 4-(2-Bromo-4-chlorobenzylideneamino)-N-(pyrimidin-2-yl)benzenesulfonamide] | 5.04 ± 0.4 | 277 to 279 | – | – | –
Cc1ccc(C=Nc2ccc(S(=O)(=O)Nc3ncccn3)cc2)c(O)c1 [3u, 4-(2-Hydroxy-4-methylbenzylideneamino)-N-(pyrimidin-2-yl)benzenesulfonamide] | – | 279 to 281 | – | – | –
